{"source": "ChEMBL document CHEMBL1159003", "about": "“Chemical investigation and anti-inflammatory activity of Vitex negundo seeds” (1992)"}
{"tested_on": "Rattus norvegicus", "experiment": "Antiinflammatory activity in Sprague-Dawley rat assessed as inhibition of carrageenan-induced paw edema at 50 mg/kg, po after 3.5 hrs", "format": "functional", "units": {"inhibition in vivo at 50 mg/kg": "%"}}
{"smiles": "CC1(C)CC[C@]2(C(=O)O)CC[C@]3(C)C(=CC[C@@H]4[C@@]5(C)C[C@H](O)[C@@H](O)C(C)(C)C5=CC[C@]43C)[C@@H]2C1", "inhibition in vivo at 50 mg/kg": 34.3}
{"smiles": "CC1(C)CC[C@]2(C(=O)O)CC[C@]3(C)C(=CC[C@@H]4[C@@]5(C)C[C@@H](O)[C@@H](O)C(C)(C)C5=CC[C@]43C)[C@@H]2C1", "inhibition in vivo at 50 mg/kg": 18.7}
{"smiles": "CC(C)Cc1ccc(C(C)C(=O)O)cc1", "note": "(stereo not drawn) [IBUPROFEN]", "inhibition in vivo at 50 mg/kg": 63.2}
